Test results from patent US20050255582A1, “Surface modifying composition” (Arch Development Corporation:, priority 2000, published 2005).

Assays:
Type in all cases: binding
Fibrinogen = experiment: SPR adsorption of protein on monolayers: fibrinogen; conditions: for amount of protein that remains adsorbed to the SAM (Fibrinogen): protein 0.5 mg/ml in PBS pH 7.6, SAM on gold
Protocol: (§1) Two experimental procedures were used to evaluate the monolayers as inert surfaces. Surface plasmon resonance (SPR) spectroscopy measures the adsorption of protein to the monolayer. All SPR experiments were performed on a BIAcore 1000 instrument. Substrates were glued into plastic BIACore cassettes with a two-part epoxy (DEVCON). Phosphate-buffered saline (PBS; 10 mM phosphate, 150 mM sodium chloride, pH 7.6) was degassed under vacuum and all protein solutions were filtered through 0.45-μm filters before use. SPR is well suited for characterization of protein adsorption because it measures adsorption in situ and can detect weak, readily reversible protein adsorption. For all monolayers, a panel of five proteins that spanned a range in molecular weight and pI were investigated.
Protein adsorption and cell attachment on four different monolayers was compared. Gold films were prepared by evaporation of titanium (1.5 nm) and then gold (40 nm) onto glass cover slips (0.20 mm, No. 2, Corning). The SAMs were prepared by immersing gold films of approximately 1 cm^2 in ethanolic solutions of alkanethiol (2 mM) for 9 hours. The SAMs were rinsed with ethanol and dried with nitrogen before use. As a control monolayer that is not inert, a SAM of hexadecanethiolate that presents hydrophobic methyl groups at the surface were used. Monolayers terminated in the tri(ethylene glycol) group were used as the current standard for inert surfaces. Each of the two additional monolayers presents the mannitol group and differs only in the length of alkyl chain to which the mannitol group is appended. [drawing 9]
SPR was used to measure the adsorption of five proteins—fibrinogen, pepsin, lysozyme, insulin, and trypsin—to the four monolayers. SPR measures changes in the refractive index of a solution near the interface with a gold film by measuring changes in the angle (ΔΘm) at which p-polarized light reflected from the glass/gold interface has a minimum in intensity. SAMs were mounted in a flow cell and experiments were performed by first flowing a phosphate buffered saline (PBS) through the cell for 5 minutes, then a solution of protein in the same buffer (0.5 mg/ml) for 5 minutes, and then PBS for 5 minutes. The rise in ΔΘm upon introduction of the protein solution has two contributions. […] The second contribution is due to the adsorption of protein to the SAM. The amount of protein that adsorbs irreversibly to the SAM is determined by comparing the shift in Θm before and after the SAM is exposed to protein. An increase in Θm of 0.1° corresponds to an increase in density of adsorbed protein of 1 ng/mm^2.

Pepsin = Pepsin (Homo sapiens, UniProt P0DJD8); experiment: SPR adsorption of protein on monolayers: pepsin; conditions: protein 0.5 mg/ml in PBS pH 7.6, SAM on gold
Protocol: as §1
(§2) Protein adsorption and cell attachment on four different monolayers was compared. Gold films were prepared by evaporation of titanium (1.5 nm) and then gold (40 nm) onto glass cover slips (0.20 mm, No. 2, Corning). […]
(§3) SPR was used to measure the adsorption of five proteins—fibrinogen, pepsin, lysozyme, insulin, and trypsin—to the four monolayers. […] The amount of protein that adsorbs irreversibly to the SAM is determined by comparing the shift in Θm before and after the SAM is exposed to protein. […]

Lysozyme = target: T1, Lysozyme (Homo sapiens, UniProt P61626); experiment: SPR adsorption of protein on monolayers: lysozyme; conditions: protein 0.5 mg/ml in PBS pH 7.6, SAM on gold
T1 sequence (P61626 19-148): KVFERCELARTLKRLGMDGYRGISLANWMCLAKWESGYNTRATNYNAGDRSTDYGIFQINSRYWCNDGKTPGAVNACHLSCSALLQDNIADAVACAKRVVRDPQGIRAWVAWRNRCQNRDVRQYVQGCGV
Protocol: as §1, §2, §3

Insulin = experiment: SPR adsorption of protein on monolayers: insulin; conditions: protein 0.5 mg/ml in PBS pH 7.6, SAM on gold
Protocol: as §1, §2, §3

Trypsin = experiment: SPR adsorption of protein on monolayers: trypsin; conditions: protein 0.5 mg/ml in PBS pH 7.6, SAM on gold
Protocol: as §1, §2, §3

Chain of Pepsin (P0DJD8 63-388): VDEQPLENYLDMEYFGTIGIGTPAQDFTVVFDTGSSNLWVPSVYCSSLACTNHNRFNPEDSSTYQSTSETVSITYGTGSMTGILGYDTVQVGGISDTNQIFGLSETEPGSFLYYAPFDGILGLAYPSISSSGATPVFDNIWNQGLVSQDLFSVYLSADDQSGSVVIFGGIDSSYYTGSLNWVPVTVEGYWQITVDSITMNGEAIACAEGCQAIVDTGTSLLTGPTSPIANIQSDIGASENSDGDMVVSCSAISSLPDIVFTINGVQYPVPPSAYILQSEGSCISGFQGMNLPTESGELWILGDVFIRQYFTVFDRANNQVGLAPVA

CCCCCCCCCCCCCCCCS [HDT, hexadecanethiolate]
adsorption of fibrinogen to the SAM (in words) (Fibrinogen; FIG. 1): A complete monolayer of protein adsorbs | change in Θm on adsorption of fibrinogen (Fibrinogen; FIG. 1): 0.35 ° | amount of protein that remains adsorbed to the SAM (Fibrinogen) (Fibrinogen): 3,432 pg/mm^2 | amount of protein that remains adsorbed to the SAM (Fibrinogen) (Fibrinogen; listed as hexadecanethiolate): 3,500 pg/mm^2 | amount of protein that remains adsorbed to the SAM (Pepsin) (Pepsin): 1,337 pg/mm^2 | amount of protein that remains adsorbed to the SAM (Lysozyme) (Lysozyme): 1,023 pg/mm^2 | amount of protein that remains adsorbed to the SAM (Insulin) (Insulin): 688 pg/mm^2 | amount of protein that remains adsorbed to the SAM (Trypsin) (Trypsin): 661 pg/mm^2
